Source: US7247634B2, “Rifamycin derivatives effective against drug-resistant microbes” (Cumbre Pharmaceuticals Inc., priority 2004, dated 2007)
In brackets after ≈: the same amount, converted by molar mass.

Legend:
Assay type in all cases: cell-based
[1] = tested on: Enterococcus faecalis ATCC29212; experiment: MIC, microbroth dilution (NCCLS); conditions: rifS strain, BHI Broth, 37° C., read-out: Antimicrobial activity (MIC)
[2] = tested on: Mycobacterium smegmatis ATCC700084; experiment: MIC, microbroth dilution (NCCLS); conditions: Mycolicibacterium smegmatis, rifS strain, Middlebrook Broth plus ADC Enrichment, 37° C., read-out: Antimicrobial activity (MIC)
[3] = tested on: Staphylococcus epidermidis ATCC12228; experiment: MIC, microbroth dilution (NCCLS); conditions: rifS strain, Cation-Adjusted Mueller-Hinton Broth, 37° C., read-out: Antimicrobial activity (MIC)
[4] = tested on: Staphylococcus aureus ATCC29213; experiment: MIC, microbroth dilution (NCCLS); conditions: rifS strain, Cation-Adjusted Mueller-Hinton Broth, 37° C., read-out: Antimicrobial activity (MIC)
[5] = tested on: Escherichia coli ATCC25922; experiment: MIC, microbroth dilution (NCCLS); conditions: rifS strain, Cation-Adjusted Mueller-Hinton Broth, 37° C., read-out: Antimicrobial activity (MIC)
[6] = tested on: Streptococcus pyogenes ATCC19615; experiment: MIC, microbroth dilution (NCCLS); conditions: rifS strain, THY Broth, 37° C., read-out: Antimicrobial activity (MIC)
[7] = tested on: Streptococcus pneumoniae ATCC6303; experiment: MIC, microbroth dilution (NCCLS); conditions: rifS strain, THY Broth with 1 mg/mL catalase, 5% CO2, 37° C., read-out: Antimicrobial activity (MIC)
[8] = tested on: Haemophilus influenzae ATCC10211; experiment: MIC, microbroth dilution (NCCLS); conditions: rifS strain, BHI Broth with NAD and hematin, 37° C., read-out: Antimicrobial activity (MIC)
[9] = tested on: Staphylococcus aureus ATCC29213 rpoB^H418Y; experiment: microbe, parasite or virus in culture; conditions: ATCC29213, read-out: Antimicrobial activity (MIC)
Experimental: (§1) Representative compounds were assayed for antimicrobial activity as follows: Minimum Inhibitory Concentrations (“MICs”) were determined by the microbroth dilution method as per NCCLS guidelines (National Committee for Clinical Laboratory Standards. 2000. Methods for dilution antimicrobial susceptibility tests for bacteria that grow aerobically, 5th ed. M7-A5. National Committee for Clinical Laboratory Standards, Wayne, Pa.), except that all growth incubations were conducted at 37° C. Bacterial cultures were tested in the following bacteriological media: S. aureus, S. epidermidis, and E. coli in Cation-Adjusted Mueller-Hinton Broth, S. pneumoniae in THY Broth supplemented with 1 mg/mL catalase under 5% CO2 atmosphere, S. pyogenes in THY Broth, E. faecalis in BHI Broth, H. influenzae in BHI Broth supplemented with 0.75 μL of 1 mg/mL NAD and 150 μL of 1 mg/ml hematin per 5 mL, and M. smegmatis in Middlebrook Broth plus ADC Enrichment.
(§2) S. aureus ATCC 29213 RpoB^H418Y is a rifampin-resistant strain with a mutation in RNA polymerase, the biological target of rifamycin antibiotics. […] S. aureus EN1252a gyrA^S84L grlA^S80F is a quinolone-resistant strain due to double mutations to DNA gyrase and topoisomerase IV, the two biological targets for quinolone antibiotics.

[10] = tested on: Staphylococcus aureus ATCC29213 rpoB^D417Y; experiment: microbe, parasite or virus in culture; conditions: ATCC29213, read-out: Antimicrobial activity (MIC)
Experimental: as §1, §2

[11] = tested on: Staphylococcus aureus EN1252a gyrA^S84L grlA^S80F; experiment: microbe, parasite or virus in culture; conditions: read-out: Antimicrobial activity (MIC)
Experimental: as §1, §2

CO[C@H]1/C=C/O[C@@]2(C)Oc3c(C)c(O)c4c(c3C2=O)C(=O)C(N2CCN(c3nc5c(cc3F)c(=O)c(C(=O)O)cn5-c3ccc(F)cc3F)CC2)=C(NC(=O)/C(C)=C\C=C\[C@H](C)[C@H](O)[C@@H](C)[C@@H](O)[C@@H](C)[C@H](OC(C)=O)[C@@H]1C)C4=O [Example 5, 3-[4-(3-Carboxy-1-(2,4-difluorophenyl)-6-fluoro-4-oxo-1,4-dihydronaphthyridin-7-yl)piperazin-1-yl]rifamycin S]
MIC [1]: 2 to 32 mg/L (≈ 1.82 to 29.1 µM) | MIC [2]: 0.5 to 64 mg/L | MIC [3]: 0.008 to 0.063 mg/L (≈ 0.00729 to 0.0574 µM) | MIC [4]: 0.004 to 0.5 mg/L (≈ 0.00364 to 0.455 µM) | MIC [5]: 0.125 to 8 mg/L (≈ 0.114 to 7.29 µM) | MIC [6]: 0.008 to 0.063 mg/L (≈ 0.00729 to 0.0574 µM) | MIC [7]: 0.008 to 0.125 mg/L (≈ 0.00729 to 0.114 µM) | MIC [8]: 0.125 to 2 mg/L (≈ 0.114 to 1.82 µM) | MIC [9]: 0.06 to 16 mg/L (≈ 0.0546 to 14.6 µM) | MIC [10]: 0.06 to 32 mg/L (≈ 0.0546 to 29.1 µM) | MIC [11]: 0.004 to 0.5 mg/L (≈ 0.00364 to 0.455 µM)

CO[C@H]1/C=C/O[C@@]2(C)Oc3c(C)c(O)c4c(c3C2=O)C(=O)C(N2CCC(CCCC3CCN(c5nc6c(cc5F)c(=O)c(C(=O)O)cn6-c5ccc(F)cc5F)CC3)CC2)=C(NC(=O)/C(C)=C\C=C\[C@H](C)[C@H](O)[C@@H](C)[C@@H](O)[C@@H](C)[C@H](OC(C)=O)[C@@H]1C)C4=O [Example 6, 3-[4-[3-[1-[3-Carboxy-1-(2,4-difluorophenyl)-6-fluoro-4-oxo-1,4-dihydronaphthyridin-7-yl]piperidin-4-yl]propyl]piperidin-1-yl]rifamycin S]
MIC [1]: 2 to 32 mg/L (≈ 1.64 to 26.2 µM) | MIC [2]: 0.5 to 64 mg/L | MIC [3]: 0.008 to 0.063 mg/L (≈ 0.00654 to 0.0515 µM) | MIC [4]: 0.004 to 0.5 mg/L (≈ 0.00327 to 0.409 µM) | MIC [5]: 0.125 to 8 mg/L (≈ 0.102 to 6.54 µM) | MIC [6]: 0.008 to 0.063 mg/L (≈ 0.00654 to 0.0515 µM) | MIC [7]: 0.008 to 0.125 mg/L (≈ 0.00654 to 0.102 µM) | MIC [8]: 0.125 to 2 mg/L (≈ 0.102 to 1.64 µM) | MIC [9]: 0.06 to 16 mg/L (≈ 0.0491 to 13.1 µM) | MIC [10]: 0.06 to 32 mg/L (≈ 0.0491 to 26.2 µM) | MIC [11]: 0.004 to 0.5 mg/L (≈ 0.00327 to 0.409 µM)

CO[C@H]1/C=C/O[C@@]2(C)Oc3c(C)c(O)c4c(c3C2=O)C(=O)C(N[C@@H]2CCN(c3cc5c(cc3F)c(=O)c(C(=O)O)cn5C3CC3)C2)=C(NC(=O)/C(C)=C\C=C\[C@H](C)[C@H](O)[C@@H](C)[C@@H](O)[C@@H](C)[C@H](OC(C)=O)[C@@H]1C)C4=O [Example 8, (R)-3-[1-(3-Carboxy-1-cyclopropyl-6-fluoro-4-oxo-1,4-dihydroquinolin-7-yl)-pyrrolidin-3-ylamino]rifamycin S]
MIC [1]: 2 to 32 mg/L (≈ 1.95 to 31.2 µM) | MIC [2]: 0.5 to 64 mg/L | MIC [3]: 0.008 to 0.063 mg/L (≈ 0.0078 to 0.0615 µM) | MIC [4]: 0.004 to 0.5 mg/L (≈ 0.0039 to 0.488 µM) | MIC [5]: 0.125 to 8 mg/L (≈ 0.122 to 7.8 µM) | MIC [6]: 0.008 to 0.063 mg/L (≈ 0.0078 to 0.0615 µM) | MIC [7]: 0.008 to 0.125 mg/L (≈ 0.0078 to 0.122 µM) | MIC [8]: 0.125 to 2 mg/L (≈ 0.122 to 1.95 µM) | MIC [9]: 0.06 to 16 mg/L (≈ 0.0585 to 15.6 µM) | MIC [10]: 0.06 to 32 mg/L (≈ 0.0585 to 31.2 µM) | MIC [11]: 0.004 to 0.5 mg/L (≈ 0.0039 to 0.488 µM)

CO[C@H]1/C=C/O[C@@]2(C)Oc3c(C)c(O)c4c(c3C2=O)C(=O)C(N[C@H]2CCN(c3cc5c(cc3F)c(=O)c(C(=O)O)cn5C3CC3)C2)=C(NC(=O)/C(C)=C\C=C\[C@H](C)[C@H](O)[C@@H](C)[C@@H](O)[C@@H](C)[C@H](OC(C)=O)[C@@H]1C)C4=O [Example 9, (S)-3-[1-(3-Carboxy-1-cyclopropyl-6-fluoro-4-oxo-1,4-dihydroquinolin-7-yl)-pyrrolidin-3-ylamino]rifamycin S]
MIC [1]: 2 to 32 mg/L (≈ 1.95 to 31.2 µM) | MIC [2]: 0.5 to 64 mg/L | MIC [3]: 0.008 to 0.063 mg/L (≈ 0.0078 to 0.0615 µM) | MIC [4]: 0.004 to 0.5 mg/L (≈ 0.0039 to 0.488 µM) | MIC [5]: 0.125 to 8 mg/L (≈ 0.122 to 7.8 µM) | MIC [6]: 0.008 to 0.063 mg/L (≈ 0.0078 to 0.0615 µM) | MIC [7]: 0.008 to 0.125 mg/L (≈ 0.0078 to 0.122 µM) | MIC [8]: 0.125 to 2 mg/L (≈ 0.122 to 1.95 µM) | MIC [9]: 0.06 to 16 mg/L (≈ 0.0585 to 15.6 µM) | MIC [10]: 0.06 to 32 mg/L (≈ 0.0585 to 31.2 µM) | MIC [11]: 0.004 to 0.5 mg/L (≈ 0.0039 to 0.488 µM)

COc1c(N2CCN(C3=C4NC(=O)/C(C)=C\C=C\[C@H](C)[C@H](O)[C@@H](C)[C@@H](O)[C@@H](C)[C@H](OC(C)=O)[C@H](C)[C@@H](OC)/C=C/O[C@@]5(C)Oc6c(C)c(O)c(c(c6C5=O)C3=O)C4=O)C(C)C2)c(F)cc2c(=O)c(C(=O)O)cn(C3CC3)c12 (stereo partly drawn) [Example 10, (R,S)-3-[4-(3-Carboxy-1-cyclopropyl-6-fluoro-8-methoxy-4-oxo-1,4-dihydroquinolin-7-yl)-2-methylpiperazin-1-yl]rifamycin S]
MIC [1]: 2 to 32 mg/L (≈ 1.87 to 29.9 µM) | MIC [2]: 0.5 to 64 mg/L | MIC [3]: 0.008 to 0.063 mg/L (≈ 0.00748 to 0.0589 µM) | MIC [4]: 0.004 to 0.5 mg/L (≈ 0.00374 to 0.468 µM) | MIC [5]: 0.125 to 8 mg/L (≈ 0.117 to 7.48 µM) | MIC [6]: 0.008 to 0.063 mg/L (≈ 0.00748 to 0.0589 µM) | MIC [7]: 0.008 to 0.125 mg/L (≈ 0.00748 to 0.117 µM) | MIC [8]: 0.125 to 2 mg/L (≈ 0.117 to 1.87 µM) | MIC [9]: 0.06 to 16 mg/L (≈ 0.0561 to 15 µM) | MIC [10]: 0.06 to 32 mg/L (≈ 0.0561 to 29.9 µM) | MIC [11]: 0.004 to 0.5 mg/L (≈ 0.00374 to 0.468 µM)
